{
  "source": "paper PMC3320885",
  "about": "(PLoS ONE, 2012)",
  "origin": "cited, not measured here",
  "key": {"[1]": {"test_system": "BCR-Abl Y253F mutant"}, "[2]": {"test_system": "BCR-Abl Q252H mutant"}, "[3]": {"test_system": "receptor tyrosine kinase PDGFR", "parameters": "method as in PMID 12543790, PMID 17114238"}, "[4]": {"test_system": "BCR-Abl V299L mutant"}, "[5]": {"test_system": "receptor tyrosine kinase Kit", "parameters": "method as in PMID 12543790, PMID 17114238"}, "[6]": {"test_system": "BCR-Abl T315I mutant"}},
  "data": [
    {"smiles": "COc1cc(Nc2c(C#N)cnc3cc(OCCCN4CCN(C)CC4)c(OC)cc23)c(Cl)cc1Cl", "note": "[bosutinib]", "values": [
      {"measurement": "effect of Y253F mutation on inhibition", "setting": "[1]", "value": "not affected"},
      {"measurement": "effect of Q252H mutation on inhibition", "setting": "[2]", "value": "not affected"},
      {"measurement": "activity against PDGFR", "setting": "[3]", "value": "devoid of activity"},
      {"measurement": "effect of V299L mutation", "setting": "[4]", "value": "confer resistance"},
      {"measurement": "activity against Kit", "setting": "[5]", "value": "devoid of activity"},
      {"measurement": "effect of T315I mutation", "setting": "[6]", "value": "confer resistance"}
    ]}
  ]
}
